ChEMBL document CHEMBL1201862, “PubChem BioAssay data set” (2004)
Activity calls are given as the source filed them.

Columns and labels:
[1] = molecular target: Luciferin 4-monooxygenase (Photinus pyralis, UniProt P08659); assay: Counter Screen for Luciferase-based Assay Positives. [Related pubchem assays: 620, 618, 411 ]
HT-1080 = assay: HT1080 cell viability loss – fluorescence readout (AID 620); assay type: functional, cell-based; conditions: Homo sapiens
[2] = Luminescence Cell-Based Dose Response HTS to Identify Inhibitors of 5'UTR Stem-Loop Driven Prion Protein mRNA Translation in H4 Neuroglioblastoma Cells. [Related pubchem assays: 1827 (Project Summary), 1813 (Primary HTS)]; assay type: functional
[3] = alpha-synuclein stem-loop luciferase translation blockers – H4 neuroglioma cells, luminescence, confirmation (AID 1988); assay type: functional, cell-based
[4] = molecular target: T1, Oxysterols receptor LXR-beta (Homo sapiens, UniProt P55055); assay type: functional, cell-based;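 further: Cell-based luminescence dose-response assay of agonist activity at LXR, run as a confirmatory counterscreen to a daf-12 agonist screen; HEK293 cells with Gal4-LXR fusion and GAL4-driven luciferase reporter; agonist potency from rising luciferase signal of a Gal4-LXR reporter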
T1 sequence (P55055 whole entry): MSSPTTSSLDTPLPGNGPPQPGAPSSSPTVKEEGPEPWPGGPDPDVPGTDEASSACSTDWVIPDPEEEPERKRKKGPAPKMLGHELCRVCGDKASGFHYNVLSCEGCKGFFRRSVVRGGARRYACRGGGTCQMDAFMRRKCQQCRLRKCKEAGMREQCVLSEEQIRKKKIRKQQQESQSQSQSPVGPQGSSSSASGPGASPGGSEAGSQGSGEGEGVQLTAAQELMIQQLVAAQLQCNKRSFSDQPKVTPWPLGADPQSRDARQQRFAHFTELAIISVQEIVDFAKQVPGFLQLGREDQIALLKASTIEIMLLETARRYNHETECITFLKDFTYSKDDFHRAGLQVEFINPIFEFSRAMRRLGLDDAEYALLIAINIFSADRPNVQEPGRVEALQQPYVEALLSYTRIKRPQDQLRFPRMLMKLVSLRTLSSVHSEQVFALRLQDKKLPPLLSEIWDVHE

Cytochrome P450 2D6 = Cytochrome P450 2D6 (Homo sapiens, UniProt P10635); assay: qHTS Assay for Inhibitors and Substrates of Cytochrome P450 2D6. [Related pubchem assays: 410 ]; assay type: ADME; conditions: read-out: Potency
[5] = molecular target: Neuropeptide Y receptor type 2 (Homo sapiens, UniProt P49146); assay: Fluorescence-based cell-based high-throughput dose response assay for agonists of NPY-Y2. [Related pubchem assays: 1703 (Screening assay (CNGC inhibitors).), 1359 (Screening assay (NPY-Y2 potentiators or agonists).), 1304 (Screening assay (NPY-Y1 potentiators or agonists).), 1710 (Screening assay (NPY-Y2 agonists).), 1791 (Summary AID.)]; assay type: functional
HEK293 = assay: Fluorescence-based counterscreen for potentiators or agonists of NPY-Y2: cell-based high-throughput dose response assay to identify inhibitors of cyclic nucleotide gated ion channel (CNGC) activity. In this assay, the parental HEK293 cell line transfected with a cyclic-nucleotide gated ion channel (CNGC)-based cAMP sensor is used to measure inhibition of isoproterenol-induced CNGC activity by test compound.; assay type: functional; conditions: Homo sapiens;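 further: stimulus is 1 µM isoproterenol at EC100 plus PDE inhibitor Ro 20-1724 at 25 µM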
[6] = molecular target: Neuropeptide Y receptor type 1 (Homo sapiens, UniProt P25929); assay: Fluorescence-based counterscreen for agonists of NPY-Y2: cell-based high-throughput dose response assay for agonists of NPY-Y1.; assay type: functional
[7] = molecular target: Lysosomal acid glucosylceramidase (Homo sapiens, UniProt P04062); assay: Dose response cell-based high throughput screening assay to identify enhancers of beta-glucosidase activity. [Related pubchem assays: 784 ]; assay type: functional
Staphylococcus aureus = assay: Inhibitors of Bacterial Quorum Sensing Structure Activity Relationship (SAR) Analysis: Dose Response Assay. [Related pubchem assays: 700, 527 ]; assay type: functional, organism-based
[8] = molecular target: Heat shock protein HSP 90-alpha (Homo sapiens, UniProt P07900); assay type: functional, organism-based
Vero [9] = assay: cells; assay type: functional; conditions: Chlorocebus sabaeus
Vero [10] = assay: cells; assay type: functional, cell-based; conditions: Chlorocebus sabaeus
[11] = CCR5-tropic HIV-1 fusion blockers – cell-based, CCR5-tropic Env, dose response (AID 2279); assay type: functional
Genome polyprotein = Genome polyprotein (dengue virus type 2, UniProt P29990); assay: flavivirus cap methylation enzyme inhibition – biochemical, confirmation dose response, primary screen (AID 588689); assay type: functional
[12] = molecular target: T2, RNA-binding protein pos-1 (Caenorhabditis elegans, UniProt G5EF15); assay: disruptors of C. elegans POS-1 RNA interaction – biochemical, fluorescence polarization, dose response (AID 1964);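 further: purified POS-1 fused to maltose binding protein made in E. coli; potency of compounds blocking POS-1 binding to fluorescent RNA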
T2 sequence (G5EF15 whole entry): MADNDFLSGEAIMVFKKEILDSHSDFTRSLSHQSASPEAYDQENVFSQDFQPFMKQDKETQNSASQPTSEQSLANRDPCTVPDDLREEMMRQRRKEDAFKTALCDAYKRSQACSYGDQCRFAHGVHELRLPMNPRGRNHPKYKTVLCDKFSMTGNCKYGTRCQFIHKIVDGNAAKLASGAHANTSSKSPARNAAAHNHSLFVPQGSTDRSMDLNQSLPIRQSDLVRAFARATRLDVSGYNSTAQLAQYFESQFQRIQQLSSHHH

[13] = molecular target: DNA (cytosine-5)-methyltransferase 1 (Homo sapiens, UniProt P26358); assay: inhibition of DNA methylation by DNMT1 – biochemical, fluorescent molecular beacon, confirmation (AID 602386); assay type: functional
Streptokinase A = molecular target: T3, Streptokinase A (Streptococcus pyogenes serotype M1, UniProt P10520); assay: viability-normalized secreted streptokinase activity reduction – plasminogen activation absorbance, OD405, dose response (AID 1914); assay type: functional, Streptococcus pyogenes M1 GAS;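 further: secreted streptokinase activity via plasminogen activation per viability signal from cell pellet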
T3 sequence (P10520 whole entry): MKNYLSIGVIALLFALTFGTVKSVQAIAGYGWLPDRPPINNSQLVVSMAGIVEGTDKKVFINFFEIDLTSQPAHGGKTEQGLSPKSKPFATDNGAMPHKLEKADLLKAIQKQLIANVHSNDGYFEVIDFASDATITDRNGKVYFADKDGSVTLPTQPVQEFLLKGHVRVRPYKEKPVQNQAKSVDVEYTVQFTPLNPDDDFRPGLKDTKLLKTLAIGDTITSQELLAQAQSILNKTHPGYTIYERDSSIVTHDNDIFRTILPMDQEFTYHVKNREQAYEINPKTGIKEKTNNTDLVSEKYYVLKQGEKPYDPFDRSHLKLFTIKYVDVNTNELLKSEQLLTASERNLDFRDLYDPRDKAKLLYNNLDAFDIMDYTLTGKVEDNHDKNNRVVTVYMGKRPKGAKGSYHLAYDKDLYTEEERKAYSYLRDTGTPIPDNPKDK

Vero [14] = assay: viability of Vero cells under compound – cytotoxicity control for flavivirus capping enzyme inhibitors (AID 588742); assay type: functional; conditions: Chlorocebus sabaeus
[15] = test system: Streptococcus sp. 'group A'; assay: Streptococcus pyogenes SK(-)GAS viability under kanamycin – luminescence, BacTiterGlo, confirmation, counter-screen for streptokinase expression inhibitor project, dose response (AID 1900); assay type: functional, organism-based
Streptococcus = assay: GAS UMAA2166 growth inhibition – luminescence, BacTiterGlo, counter-screen for streptokinase expression inhibitor project, dose response (AID 1915); assay type: functional, organism-based;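 further: potency for reduction of bacterial viability or growth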
[16] = molecular target: T4, Zinc finger protein mex-5 (Caenorhabditis elegans, UniProt Q9XUB2); assay: potency of MEX-5 RNA-binding blockers – biochemical, C. elegans, fluorescence polarization, dose response (AID 1960)
T4 sequence (Q9XUB2 whole entry): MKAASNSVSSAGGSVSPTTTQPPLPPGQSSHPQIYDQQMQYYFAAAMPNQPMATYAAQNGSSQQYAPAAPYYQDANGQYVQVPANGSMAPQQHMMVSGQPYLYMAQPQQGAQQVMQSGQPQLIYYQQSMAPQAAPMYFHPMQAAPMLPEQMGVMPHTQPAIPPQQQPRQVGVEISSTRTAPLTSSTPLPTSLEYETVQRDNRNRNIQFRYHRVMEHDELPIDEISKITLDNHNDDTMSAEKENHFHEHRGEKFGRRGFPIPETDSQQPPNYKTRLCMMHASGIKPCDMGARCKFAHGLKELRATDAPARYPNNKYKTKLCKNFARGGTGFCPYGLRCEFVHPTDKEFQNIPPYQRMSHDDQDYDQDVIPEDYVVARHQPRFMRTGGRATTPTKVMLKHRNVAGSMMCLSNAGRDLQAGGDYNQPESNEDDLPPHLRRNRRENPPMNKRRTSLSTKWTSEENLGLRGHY

[17] = molecular target: Melanin-concentrating hormone receptor 1 (Homo sapiens, UniProt Q99705); assay: Late-stage fluorescence-based counterscreen for antagonists of the G-protein coupled receptor 7 (GPR7): cell-based dose response assay to identify antagonists of the melanin-concentrating hormone receptor 1 (MCHR1). [Related pubchem assays (depositor defined):AID1861, AID1880, AID1952, AID2148, AID2251, AID2257, AID485339]; assay type: functional;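 further: stimulated with 30 nM MCH peptide agonist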
[18] = molecular target: T5, Kappa-type opioid receptor (Homo sapiens, UniProt P41145); assay: kappa opioid receptor blockers, image-based, SAR follow-up (AID 2348); assay type: functional
[19] = molecular target: T6, Delta-type opioid receptor (Homo sapiens, UniProt P41143); assay: DOR agonists, SAR follow-up, image-based (AID 2370); assay type: functional
[20] = molecular target: T6, Delta-type opioid receptor; assay: delta opioid receptor blockers – image-based, SAR follow-up (AID 2357); assay type: functional
[21] = molecular target: T5, Kappa-type opioid receptor; assay: SAR analysis of small molecule agonists of the kappa opioid receptor via a luminescent beta-arrestin assay. [Related pubchem assays (depositor defined):AID1777, AID1786, AID1966, AID2133, AID2136, AID2348, AID2352, AID2357, AID2359, AID2370, AID2420, AID2478, AID2491, AID2492, AID2493, AID2497, AID2498, AID2500, AID449737, AID488822, AID488842]; assay type: functional
Mu-type opioid receptor [22] = molecular target: T7, Mu-type opioid receptor (Homo sapiens, UniProt P35372); assay: mu opioid receptor activators, image-based, SAR follow-up (AID 2352); assay type: functional
Mu-type opioid receptor [23] = molecular target: T7, Mu-type opioid receptor; assay: mu opioid receptor blockers – image-based, SAR follow-up (AID 2420); assay type: functional;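 further: compounds added before stimulation of receptor with agonist DAMGO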
[24] = molecular target: T5, Kappa-type opioid receptor; assay: kappa opioid receptor activation potency – imaging, image-based, SAR follow-up (AID 2359); assay type: functional
Chaperone protein dnaK = Chaperone protein dnaK (Escherichia coli, UniProt C3TRK2); assay: E. coli DnaK binders, calorimetric Kd – biophysical, isothermal titration calorimetry, beta-domain, full-length DnaK, orthogonal assay for DnaK modulator project, SAR follow-up (AID 1495)
[25] = molecular target: Polyadenylate-binding protein 1 (Homo sapiens, UniProt P11940); assay: blockers of PABP interaction with poly(A) – biochemical, fluorescence polarization, […] (AID 2014)
[26] = molecular target: Eukaryotic translation initiation factor 4H (Homo sapiens, UniProt Q15056); assay: eIF4H binding inhibition – biochemical, uHTS, fluorescence polarization, translation initiation inhibitor project, primary screen (AID 2012)
[27] = molecular target: Cyclin-dependent kinase 5/CDK5 activator 1 (Homo sapiens, UniProt Q00535); assay: blockade of human CDK5 activity – biochemical, cherry-picked samples, set 2, dose response (AID 504545)
[28] = molecular target: T8, Ubiquitin-conjugating enzyme E2 N (Homo sapiens, UniProt P61088); assay type: functional;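 further: Dose-response confirmation in a TR-FRET assay detecting UBC13-driven polyubiquitin chain formation, inhibition measured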
T8 sequence (P61088 whole entry): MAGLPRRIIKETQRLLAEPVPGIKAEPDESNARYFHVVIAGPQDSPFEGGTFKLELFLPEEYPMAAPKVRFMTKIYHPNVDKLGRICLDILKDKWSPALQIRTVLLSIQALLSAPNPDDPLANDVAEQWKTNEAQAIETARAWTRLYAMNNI

[29] = luciferase reporter signal suppression in cells – H4 neuroglioma cells, luminescence, dose response (AID 1990); assay type: functional, cell-based

T5 sequence (P41145 whole entry): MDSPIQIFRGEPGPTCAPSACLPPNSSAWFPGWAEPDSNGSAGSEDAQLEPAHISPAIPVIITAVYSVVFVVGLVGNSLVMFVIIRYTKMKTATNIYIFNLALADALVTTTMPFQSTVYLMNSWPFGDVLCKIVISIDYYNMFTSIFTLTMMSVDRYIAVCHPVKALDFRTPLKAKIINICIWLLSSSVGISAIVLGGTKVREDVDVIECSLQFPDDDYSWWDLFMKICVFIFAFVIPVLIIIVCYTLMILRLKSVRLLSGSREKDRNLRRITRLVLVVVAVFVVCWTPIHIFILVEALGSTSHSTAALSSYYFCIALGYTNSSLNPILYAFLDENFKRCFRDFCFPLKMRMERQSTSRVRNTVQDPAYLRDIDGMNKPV
T7 sequence (P35372 whole entry): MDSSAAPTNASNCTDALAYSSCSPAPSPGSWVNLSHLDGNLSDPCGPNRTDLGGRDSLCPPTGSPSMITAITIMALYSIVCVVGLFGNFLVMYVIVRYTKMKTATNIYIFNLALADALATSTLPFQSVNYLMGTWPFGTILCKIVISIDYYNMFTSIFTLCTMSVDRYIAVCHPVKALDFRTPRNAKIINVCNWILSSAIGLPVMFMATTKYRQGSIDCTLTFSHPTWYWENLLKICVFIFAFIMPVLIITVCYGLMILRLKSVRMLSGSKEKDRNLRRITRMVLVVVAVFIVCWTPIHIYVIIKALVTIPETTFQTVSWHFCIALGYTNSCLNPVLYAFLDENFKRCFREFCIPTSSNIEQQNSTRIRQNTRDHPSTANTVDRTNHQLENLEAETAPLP
T6 sequence (P41143 whole entry): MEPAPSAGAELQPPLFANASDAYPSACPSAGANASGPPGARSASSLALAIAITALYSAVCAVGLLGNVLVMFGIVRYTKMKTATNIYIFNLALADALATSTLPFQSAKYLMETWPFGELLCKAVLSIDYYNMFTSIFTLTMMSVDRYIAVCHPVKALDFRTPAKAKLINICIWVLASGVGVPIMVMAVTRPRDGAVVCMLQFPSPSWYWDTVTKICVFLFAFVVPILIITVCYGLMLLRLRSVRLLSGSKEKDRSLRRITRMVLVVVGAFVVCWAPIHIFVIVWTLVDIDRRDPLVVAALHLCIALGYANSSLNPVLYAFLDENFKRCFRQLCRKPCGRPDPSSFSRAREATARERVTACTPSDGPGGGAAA
DNA (cytosine-5)-methyltransferase 1, sequence (P26358 whole entry): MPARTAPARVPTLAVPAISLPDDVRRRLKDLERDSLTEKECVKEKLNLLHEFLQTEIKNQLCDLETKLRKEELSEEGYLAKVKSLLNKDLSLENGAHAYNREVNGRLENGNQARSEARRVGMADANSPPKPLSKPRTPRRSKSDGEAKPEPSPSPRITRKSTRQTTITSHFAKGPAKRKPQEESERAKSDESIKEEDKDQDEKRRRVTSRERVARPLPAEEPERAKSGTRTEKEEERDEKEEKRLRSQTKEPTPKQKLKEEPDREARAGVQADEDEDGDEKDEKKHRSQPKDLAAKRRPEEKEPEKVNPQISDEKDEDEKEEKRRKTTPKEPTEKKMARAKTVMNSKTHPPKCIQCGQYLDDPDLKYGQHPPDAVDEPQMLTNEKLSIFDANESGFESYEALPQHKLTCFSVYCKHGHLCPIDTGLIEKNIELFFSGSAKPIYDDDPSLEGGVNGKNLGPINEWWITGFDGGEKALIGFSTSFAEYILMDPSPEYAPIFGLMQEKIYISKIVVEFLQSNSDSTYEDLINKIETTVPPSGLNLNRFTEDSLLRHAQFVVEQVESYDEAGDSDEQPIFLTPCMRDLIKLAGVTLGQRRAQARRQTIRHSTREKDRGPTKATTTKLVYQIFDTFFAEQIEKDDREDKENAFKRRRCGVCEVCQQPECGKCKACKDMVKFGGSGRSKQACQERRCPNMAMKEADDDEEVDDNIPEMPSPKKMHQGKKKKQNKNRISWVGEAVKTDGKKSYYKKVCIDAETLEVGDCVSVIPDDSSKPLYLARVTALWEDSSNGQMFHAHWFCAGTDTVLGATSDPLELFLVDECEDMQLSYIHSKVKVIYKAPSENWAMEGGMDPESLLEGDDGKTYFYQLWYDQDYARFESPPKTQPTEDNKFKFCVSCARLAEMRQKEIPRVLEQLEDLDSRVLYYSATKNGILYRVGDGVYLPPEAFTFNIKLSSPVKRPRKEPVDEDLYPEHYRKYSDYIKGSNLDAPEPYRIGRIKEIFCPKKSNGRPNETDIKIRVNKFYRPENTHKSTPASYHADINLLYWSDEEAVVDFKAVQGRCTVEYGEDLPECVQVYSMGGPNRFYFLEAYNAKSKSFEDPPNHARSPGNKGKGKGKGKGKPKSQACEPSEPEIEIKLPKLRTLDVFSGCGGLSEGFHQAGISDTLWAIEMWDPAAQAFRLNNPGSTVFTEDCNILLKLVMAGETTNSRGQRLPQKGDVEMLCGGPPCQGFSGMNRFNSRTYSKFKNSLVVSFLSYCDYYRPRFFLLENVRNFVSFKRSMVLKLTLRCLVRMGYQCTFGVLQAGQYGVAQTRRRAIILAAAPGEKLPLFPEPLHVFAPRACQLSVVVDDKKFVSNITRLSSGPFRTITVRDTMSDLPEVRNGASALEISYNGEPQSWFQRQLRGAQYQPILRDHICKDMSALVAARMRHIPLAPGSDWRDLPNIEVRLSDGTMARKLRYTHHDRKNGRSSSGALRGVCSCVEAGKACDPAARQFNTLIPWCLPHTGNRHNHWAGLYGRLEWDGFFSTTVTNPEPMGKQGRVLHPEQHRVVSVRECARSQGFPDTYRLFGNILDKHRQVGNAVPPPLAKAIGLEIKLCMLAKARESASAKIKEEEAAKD
Polyadenylate-binding protein 1, sequence (P11940 whole entry): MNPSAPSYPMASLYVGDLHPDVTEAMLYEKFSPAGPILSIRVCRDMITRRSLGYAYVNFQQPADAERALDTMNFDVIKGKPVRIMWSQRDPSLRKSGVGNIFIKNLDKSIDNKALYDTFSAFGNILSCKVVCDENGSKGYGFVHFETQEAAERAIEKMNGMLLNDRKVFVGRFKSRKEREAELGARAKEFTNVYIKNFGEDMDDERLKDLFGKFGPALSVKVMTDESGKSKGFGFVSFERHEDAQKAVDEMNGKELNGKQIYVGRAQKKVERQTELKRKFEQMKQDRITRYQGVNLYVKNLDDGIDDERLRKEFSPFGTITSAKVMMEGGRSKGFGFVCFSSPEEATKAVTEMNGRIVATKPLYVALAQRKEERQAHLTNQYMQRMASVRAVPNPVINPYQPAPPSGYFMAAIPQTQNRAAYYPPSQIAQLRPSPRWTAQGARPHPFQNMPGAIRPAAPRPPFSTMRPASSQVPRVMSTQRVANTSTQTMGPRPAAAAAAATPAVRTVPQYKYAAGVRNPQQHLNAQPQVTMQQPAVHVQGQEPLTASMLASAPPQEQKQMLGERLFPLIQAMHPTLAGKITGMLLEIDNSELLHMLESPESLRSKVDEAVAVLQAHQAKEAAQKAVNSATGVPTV
Lysosomal acid glucosylceramidase, sequence (P04062 whole entry): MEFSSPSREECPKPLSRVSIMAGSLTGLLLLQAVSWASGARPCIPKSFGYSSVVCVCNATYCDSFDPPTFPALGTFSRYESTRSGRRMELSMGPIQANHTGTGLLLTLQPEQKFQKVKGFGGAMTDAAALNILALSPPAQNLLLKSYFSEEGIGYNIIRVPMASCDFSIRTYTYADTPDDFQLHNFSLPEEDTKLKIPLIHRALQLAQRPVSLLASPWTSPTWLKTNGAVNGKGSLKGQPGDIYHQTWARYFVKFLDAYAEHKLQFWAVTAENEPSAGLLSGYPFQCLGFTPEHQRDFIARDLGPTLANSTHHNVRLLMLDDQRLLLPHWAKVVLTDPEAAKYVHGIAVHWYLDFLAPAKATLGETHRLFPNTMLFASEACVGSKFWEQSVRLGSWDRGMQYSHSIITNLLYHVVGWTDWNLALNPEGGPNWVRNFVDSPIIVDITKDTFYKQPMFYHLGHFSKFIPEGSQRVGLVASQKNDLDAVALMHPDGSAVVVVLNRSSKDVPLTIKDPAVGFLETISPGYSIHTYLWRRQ
Chaperone protein dnaK, sequence (C3TRK2 whole entry): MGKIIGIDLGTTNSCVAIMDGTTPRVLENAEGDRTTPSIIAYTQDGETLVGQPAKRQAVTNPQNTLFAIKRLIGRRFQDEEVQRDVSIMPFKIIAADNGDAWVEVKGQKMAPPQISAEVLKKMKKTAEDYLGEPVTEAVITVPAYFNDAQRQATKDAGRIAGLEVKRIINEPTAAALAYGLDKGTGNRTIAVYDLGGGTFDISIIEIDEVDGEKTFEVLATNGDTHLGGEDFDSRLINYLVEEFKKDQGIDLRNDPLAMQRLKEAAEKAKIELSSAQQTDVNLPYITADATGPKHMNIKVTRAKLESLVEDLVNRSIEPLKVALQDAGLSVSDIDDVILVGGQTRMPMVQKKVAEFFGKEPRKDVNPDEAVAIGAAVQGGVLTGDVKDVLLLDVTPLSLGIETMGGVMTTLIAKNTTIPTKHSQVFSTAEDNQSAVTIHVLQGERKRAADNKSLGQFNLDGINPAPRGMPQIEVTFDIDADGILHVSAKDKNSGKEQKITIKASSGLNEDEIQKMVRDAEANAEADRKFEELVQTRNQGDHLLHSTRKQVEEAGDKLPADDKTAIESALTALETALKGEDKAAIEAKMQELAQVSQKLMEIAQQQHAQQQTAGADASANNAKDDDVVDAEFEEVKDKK

Structure (SMILES): Cc1ccc(-c2nc3n(n2)Cc2ccccc2-3)cc1
- EC50 (cells): > 67.5 µM (inactive)
- EC50 [1]: 2.87 µM (active)
- EC50 (HT-1080): > 50 µM (not active)
- EC50 [2]: 0.364 µM (active)
- EC50 [3]: 6.59 µM (active)
- EC50 [4]: > 67.5 µM (inactive)

Structure (SMILES): CCOC(=O)OCC1C=C[C@H](c2cc(-c3ccccc3)ccc2O)C(c2ccc(C(C)=O)cc2)O1 (stereo not given in full)
- AC50 (Cytochrome P450 2D6): 6.31 µM (inconclusive)

Structure (SMILES): O=C(Nc1sc2c(c1-c1nc3ccccc3[nH]1)CCCC2)C1CC1
- EC50 [5]: > 35.4 µM (not active)
- EC50 (HEK293): > 35.4 µM (not active)
- EC50 [6]: 17.3 µM (not active)

Structure (SMILES): COC(=O)c1cn(C(=O)c2cccs2)c2ccccc12
- EC50 [7]: > 50 µM (not active)

Structure (SMILES): CCCCc1oc2ccccc2c1C(=O)c1ccc(O)cc1
- IC50 (Staphylococcus aureus): 0.544 µM (active)

Structure (SMILES): COc1ccc(C(=O)/C=C/c2ccc(-c3ccccc3)cc2)cc1CSCC(=O)O
- AC50 [8]: 9.3 µM (active)
- CC50 (Vero [9]): > 25 µM (active)
- IC50 (Vero [10]): > 25 µM (active)
- IC50 [11]: 9.89 µM (active)
- IC50 (Genome polyprotein): 37.7 µM (active)
- EC50 [12]: > 300 µM (not active)
- IC50 [13]: 9.8 µM (active)
- EC50 (Streptokinase A): 8.81 µM (active)
- CC50 (Vero [14]): 29.5 µM (active)
- EC50 [15]: 4.28 µM (active)
- EC50 (Streptococcus): > 150 µM (not active)
- EC50 [16]: > 300 µM (not active)

Structure (SMILES): CCc1ccc(Oc2c(Cl)cnn(-c3ccc(C)cc3)c2=O)cc1
- IC50 [17]: 5 µM (active)

Structure (SMILES): Cc1cccc(-n2ccnc2CN2CCC(CO)(CC3CCCCO3)CC2)c1 (stereo not given)
- IC50 [18]: > 32 µM (inactive)
- EC50 [19]: > 32 µM (inactive)
- IC50 [20]: > 32 µM (inactive)
- EC50 [21]: > 10 µM (inactive)
- EC50 (Mu-type opioid receptor [22]): > 32 µM (inactive)
- IC50 (Mu-type opioid receptor [23]): > 32 µM (inactive)
- EC50 [24]: 5.82 µM (active)

Structure (SMILES): O=C(NCc1ccccc1O)c1cccs1
- Kd (Chaperone protein dnaK): 2.3 µM (active)

Structure (SMILES): O=C(O)c1ccc(N/N=C/c2cc3c(cc2[N+](=O)[O-])OCO3)cc1
- IC50 [25]: 48.8 µM (active)
- IC50 [26]: 21.8 µM (active)

Structure (SMILES): CC(C)n1cnc2c(Nc3cccc(Cl)c3)nc(N(CCO)CCCO)nc21
- AC50 [27]: 0.463 µM (active)
- EC50 [2]: 10.7 µM (active)
- EC50 [3]: 9.32 µM (active)
- IC50 [28]: > 20 µM (inactive)
- EC50 [29]: 10.8 µM (active)
